From PubChem BioAssay (NCI) come the findings set out here.

Among the test systems are U251 CNS; CCRF-CEM leukemia; CAKI-1 renal; SF-268 CNS; UO-31 renal; EKVX NSCLC; HCT-116 colon; SN12C renal; SK-MEL-2 melanoma.
Experiment in all cases: DTP human tumour cell line panel, 48 h

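How tested: cells in 96-well plates exposed to compound for 48 hours at five concentrations. Abbreviation: GI50, concentration required for 50% inhibition of growth. TGI marks complete inhibition of growth.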 Some results are limits rather than exact numbers.

A word on the TGI: it is the concentration at which net growth stops. Read a high TGI as less potent growth arrest. Broadly, the GI50 is the concentration that inhibits growth by half.

With `CCOC(=O)c1cc2cc([N+](=O)[O-])ccc2oc1=O`, the concentration for total growth inhibition (TGI) in the assay with U251 CNS, with CCRF-CEM leukemia, in the assay on CAKI-1 renal, in the assay on SF-268 CNS, in the assay with UO-31 renal and with EKVX NSCLC was over 100 µM in each case. Further, the concentration for total growth inhibition (TGI) in the assay with HCT-116 colon and in the assay on SN12C renal was over 100 µM throughout.
Regarding `Cc1ccc(Nc2ccnc(Nc3cccc(C(N)=O)c3)n2)cc1O`, the GI50 in the assay on U251 CNS was 7.84 µM; with CCRF-CEM leukemia, 7.99 µM; in the assay on CAKI-1 renal it was 4.11 µM; with SF-268 CNS it was 3.84 µM; in the assay with UO-31 renal, 0.846 µM; in the assay on EKVX NSCLC it was 9.2 µM. In addition, the GI50 with SK-MEL-2 melanoma is 8.45 µM; in the assay on HCT-116 colon, 8.01 µM; in the assay on SN12C renal, 3.7 µM. Further, the concentration for total growth inhibition (TGI) is over 25 µM in the assay with U251 CNS; over 25 µM in the assay on CCRF-CEM leukemia; 19 µM in the assay with CAKI-1 renal; over 17.7 µM in the assay on SF-268 CNS; 11.9 µM with UO-31 renal; over 25 µM with EKVX NSCLC. For the same molecule, the TGI in the assay with SK-MEL-2 melanoma, in the assay on HCT-116 colon and in the assay with SN12C renal was over 25 µM each time.
Consider `CCNC1=CC(=O)c2ncccc2C1=O`, for which the GI50 was 2.49 µM with U251 CNS; 6.14 µM in the assay with CCRF-CEM leukemia; 7.5 µM with CAKI-1 renal; 3.13 µM in the assay on SF-268 CNS; 1.76 µM in the assay with UO-31 renal; 4.68 µM in the assay on EKVX NSCLC. Further, the GI50 in the assay with SK-MEL-2 melanoma is 2.36 µM; in the assay with HCT-116 colon it was 3 µM; in the assay on SN12C renal it was 1.4 µM. Further, the TGI in the assay with U251 CNS was found to be 13.6 µM; with CCRF-CEM leukemia, 42.4 µM; with CAKI-1 renal, 21.1 µM; in the assay on SF-268 CNS it was 17.3 µM; in the assay on UO-31 renal, 7.72 µM; with EKVX NSCLC it was 18.5 µM. In addition, the TGI in the assay with SK-MEL-2 melanoma came out at 7.53 µM; in the assay with HCT-116 colon it was 9.7 µM; in the assay with SN12C renal it was 2.78 µM.
For the molecule `Cc1[nH]nc(C(=O)N/N=C/c2cccs2)c1N=NN(C)C`, the total growth inhibition concentration (TGI) was 32.1 µM with U251 CNS; over 100 µM with CCRF-CEM leukemia; 25.9 µM in the assay with CAKI-1 renal; 37.1 µM in the assay with SF-268 CNS; 21.9 µM with UO-31 renal; over 100 µM with EKVX NSCLC. The total growth inhibition concentration (TGI) is 79.8 µM in the assay with SK-MEL-2 melanoma, over 100 µM with HCT-116 colon and over 100 µM in the assay with SN12C renal.
In the case of `COc1ccc2c3c([nH]c2c1)[C@H]1C[C@H]2[C@H](C[C@@H](O)[C@H](OC)[C@H]2C(=O)O)CN1CC3`, the TGI in the assay on U251 CNS, with CCRF-CEM leukemia, in the assay on CAKI-1 renal, in the assay with SF-268 CNS, in the assay on UO-31 renal and in the assay with EKVX NSCLC was over 100 µM throughout. The TGI in the assay on SK-MEL-2 melanoma, in the assay with HCT-116 colon and with SN12C renal was over 100 µM each time.
As to `Cn1cc(/C=C2\C(=O)Nc3cccnc32)c2ccccc21`, the GI50 with U251 CNS was over 25 µM; in the assay on CCRF-CEM leukemia, 16 µM; with CAKI-1 renal, 10.2 µM; in the assay on SF-268 CNS, over 21.7 µM; in the assay with UO-31 renal, 4.86 µM; in the assay on EKVX NSCLC, 11.1 µM. Moreover, the figures for the GI50 with SK-MEL-2 melanoma, with HCT-116 colon and in the assay with SN12C renal were 11.6 µM, 14.7 µM and 9.88 µM, respectively. The TGI in the assay on U251 CNS, in the assay with CCRF-CEM leukemia, in the assay on CAKI-1 renal, with SF-268 CNS, in the assay with UO-31 renal and in the assay with EKVX NSCLC was over 25 µM in each case. Also, the TGI in the assay with SK-MEL-2 melanoma, in the assay with HCT-116 colon and in the assay with SN12C renal was over 25 µM throughout.
Regarding `O=c1c2c(=NCCCN3CCCC3)cc3c(=O)n(CCCN4CCCC4)c(=O)c4c(NCCCN5CCCC5)cc(c(O)n1CCCN1CCCC1)c2c4-3`, the GI50 with U251 CNS is 0.647 µM; in the assay with CCRF-CEM leukemia it was 5.22 µM; in the assay with CAKI-1 renal, 10.6 µM; in the assay with SF-268 CNS, 2.23 µM; in the assay with UO-31 renal it was 4.5 µM; with EKVX NSCLC it was 2.79 µM. Also, the GI50 in the assay with SK-MEL-2 melanoma was 2.22 µM; with HCT-116 colon it was 2.01 µM; in the assay on SN12C renal, 3.11 µM. For the same molecule, the TGI in the assay on U251 CNS was determined as 10.4 µM; in the assay on CCRF-CEM leukemia it was 71 µM; in the assay on CAKI-1 renal, 42 µM; in the assay on SF-268 CNS, 8.66 µM; in the assay with UO-31 renal, 22 µM; in the assay on EKVX NSCLC, 12.9 µM. In addition, the total growth inhibition concentration (TGI) worked out at 6.57 µM in the assay with SK-MEL-2 melanoma, 6.43 µM in the assay on HCT-116 colon and 34.2 µM in the assay on SN12C renal.
Take `NC(=O)c1ccc(-c2c3ccccc3cc3c2ccc2ccccc23)cc1`: the GI50 in the assay on U251 CNS was 3.61 µM; with CCRF-CEM leukemia it was 5.83 µM; with CAKI-1 renal, 4.54 µM; in the assay on SF-268 CNS it was 2.81 µM; in the assay on UO-31 renal, 7.1 µM; in the assay on EKVX NSCLC it was 9.35 µM. For the same molecule, the GI50 in the assay on HCT-116 colon is 2.36 µM. For the same molecule, the total growth inhibition concentration (TGI) in the assay with U251 CNS was 19 µM; with CCRF-CEM leukemia, over 100 µM; in the assay on CAKI-1 renal, 52.8 µM; with SF-268 CNS it was 18.1 µM; in the assay on UO-31 renal, 39.5 µM; in the assay on EKVX NSCLC, over 100 µM. The TGI in the assay on HCT-116 colon turned out to be 10.8 µM.
With `CC(Cl)CC(=O)Nc1ccc2c(c1)oc(=O)c1cc(NC(=O)CC(C)Cl)ccc12` (stereo not given), the GI50 is 11.1 µM in the assay with U251 CNS; 11.1 µM with CCRF-CEM leukemia; 19.7 µM in the assay on CAKI-1 renal; 10.1 µM in the assay with SF-268 CNS; 13.3 µM in the assay with UO-31 renal; 27 µM with EKVX NSCLC. Moreover, the GI50 in the assay with SK-MEL-2 melanoma was 2.99 µM; in the assay with HCT-116 colon, 12.4 µM; in the assay on SN12C renal it was 16.4 µM. In addition, the concentration for total growth inhibition (TGI) with U251 CNS was 23.7 µM; in the assay on CCRF-CEM leukemia, 29 µM; with CAKI-1 renal, over 100 µM; in the assay with SF-268 CNS, 33.3 µM; in the assay on UO-31 renal, 69.4 µM; with EKVX NSCLC it was 88 µM. The TGI with SK-MEL-2 melanoma was determined as 83.6 µM; in the assay on HCT-116 colon, 40 µM; in the assay on SN12C renal it was 32 µM.
As to `C/C(=N\n1c(N)c(C#N)c(-c2ccc(Cl)cc2)c(C#N)c1=O)c1cccnc1`, the GI50 in the assay on U251 CNS, with CCRF-CEM leukemia, in the assay on CAKI-1 renal, with SF-268 CNS, in the assay with UO-31 renal and in the assay with EKVX NSCLC was over 100 µM each time. The GI50 in the assay on SK-MEL-2 melanoma, with HCT-116 colon and in the assay with SN12C renal was over 100 µM each time. The TGI in the assay with U251 CNS, in the assay with CCRF-CEM leukemia, with CAKI-1 renal, in the assay on SF-268 CNS, in the assay with UO-31 renal and in the assay with EKVX NSCLC was over 100 µM each time. Also, the TGI with SK-MEL-2 melanoma, in the assay with HCT-116 colon and in the assay with SN12C renal was over 100 µM each time.
For `CCn1cc(C2NC(=O)c3cc(F)ccc3N2)c2cccc(Cl)c21` (stereo not given), the GI50 is 0.33 µM with U251 CNS; 0.172 µM in the assay with CCRF-CEM leukemia; 0.196 µM in the assay with CAKI-1 renal; 1.92 µM in the assay with SF-268 CNS; 2.88 µM in the assay with UO-31 renal; 0.461 µM in the assay on EKVX NSCLC. The GI50 was 0.887 µM with SK-MEL-2 melanoma, 0.177 µM with HCT-116 colon and 0.706 µM in the assay with SN12C renal. Also, the TGI in the assay on U251 CNS is over 100 µM; in the assay on CCRF-CEM leukemia, over 50.3 µM; with CAKI-1 renal, over 100 µM; with SF-268 CNS, over 100 µM; in the assay on UO-31 renal, over 100 µM; with EKVX NSCLC it was over 100 µM. The TGI with SK-MEL-2 melanoma, in the assay with HCT-116 colon and in the assay with SN12C renal was over 100 µM each time.
Consider `COc1ccccc1OCC(COC(=O)Nc1ccc(C)cc1)OC(=O)Nc1ccc(C)cc1` (stereo not given), for which the TGI in the assay on U251 CNS was 27.3 µM; in the assay with CCRF-CEM leukemia it was 45.3 µM; in the assay with CAKI-1 renal, 34.3 µM; with SF-268 CNS, 46.2 µM; in the assay on UO-31 renal, 34.3 µM; in the assay on EKVX NSCLC it was 65.8 µM. The TGI was determined as 31.4 µM with SK-MEL-2 melanoma, 31.3 µM with HCT-116 colon and 42.3 µM with SN12C renal.
With `O=C(N/N=C\c1cc(Cl)ccc1O)N/N=C/c1cc(Cl)ccc1O`, the GI50 is 0.997 µM in the assay on U251 CNS; 2.51 µM with CCRF-CEM leukemia; 3.36 µM with CAKI-1 renal; 9.74 µM in the assay on SF-268 CNS; 0.489 µM in the assay on UO-31 renal; 7.83 µM in the assay on EKVX NSCLC. In addition, the GI50 in the assay on SK-MEL-2 melanoma was over 100 µM; with HCT-116 colon it was 0.565 µM; with SN12C renal, over 100 µM. The concentration for total growth inhibition (TGI) in the assay on U251 CNS, in the assay with CCRF-CEM leukemia, in the assay with CAKI-1 renal, in the assay with SF-268 CNS, in the assay with UO-31 renal and in the assay with EKVX NSCLC was over 100 µM throughout. Besides, the TGI in the assay on SK-MEL-2 melanoma, in the assay on HCT-116 colon and with SN12C renal was over 100 µM in each case.
Take `C1CCN2CC34CC(CC5CCCN(C6CCCC3N6)C54)C2C1` (stereo not given): the total growth inhibition concentration (TGI) with U251 CNS, in the assay on CCRF-CEM leukemia, in the assay on CAKI-1 renal, in the assay on SF-268 CNS, in the assay on EKVX NSCLC and in the assay on SK-MEL-2 melanoma was over 100 µM throughout. Besides, the TGI in the assay on HCT-116 colon and in the assay with SN12C renal was over 100 µM in each case.
Consider `N#CC(C#N)=C/C=C/c1cccc([N+](=O)[O-])c1`, for which the GI50 with U251 CNS was 1.08 µM; in the assay on CCRF-CEM leukemia it was 0.556 µM; in the assay with CAKI-1 renal, 0.457 µM; in the assay with SF-268 CNS it was 1.54 µM; in the assay on EKVX NSCLC, 3.47 µM; in the assay on HCT-116 colon it was 0.277 µM. Besides, the GI50 in the assay with SN12C renal is 3.23 µM. In addition, the TGI with U251 CNS came to 5.03 µM; with CCRF-CEM leukemia, 15.2 µM; with CAKI-1 renal it was 4 µM; in the assay with SF-268 CNS it was 12.9 µM; in the assay with EKVX NSCLC, 27.8 µM; with HCT-116 colon it was 1.1 µM. This molecule displayed a total growth inhibition concentration (TGI) with SN12C renal of 30 µM.
